Data as given in patent US9347934B2, “Assays for identifying compounds that modulate bitter taste” (CHROMOCELL CORPORATION, priority 2011, dated 2016).

Legend:
Format in all cases: cell-based
[1] = molecular target: T1, TAS2R10 (Homo sapiens, UniProt Q9NYW0); test: Calcium fluorescence functional assay, TAS2R10 cell line; conditions: 20 mM tastant; cell line expressing human TAS2R10 and mouse Gα15
T1 construct: expressed in transfected cells
T1 sequence (Q9NYW0 1-307): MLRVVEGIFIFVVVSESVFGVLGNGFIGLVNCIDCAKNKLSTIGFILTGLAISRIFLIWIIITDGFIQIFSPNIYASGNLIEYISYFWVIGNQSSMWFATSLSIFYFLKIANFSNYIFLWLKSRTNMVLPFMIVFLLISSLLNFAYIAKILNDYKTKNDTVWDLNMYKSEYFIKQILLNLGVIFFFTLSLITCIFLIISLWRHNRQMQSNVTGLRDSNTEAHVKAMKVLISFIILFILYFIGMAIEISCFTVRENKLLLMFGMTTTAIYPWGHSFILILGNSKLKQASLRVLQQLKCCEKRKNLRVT
Experimental: (§1) Accordingly, each cell line of the panel expressed a human bitter taste receptor and mouse Gα15 signaling protein.
(§2) Probenecid was not included in the load solution.
(§3) After dye loading, cell plates were placed in a fluorescent plate reader (e.g., FDSS6000 (Hamamatsu, Japan)) and receptor stimulation was measured by adding 50 ul of 3× concentrated ligand/agonist stock. Fluorescence was monitored continuously for 10 s before agonist addition and for 100-250 s after stimulation with agonist.
(§4) Receptor Activation is defined as follows: % Activation=[((Maximum signal fluorescence−Minimum signal fluorescence)−(Maximum control fluorescence−Minimum control fluorescence))/(Maximum buffer fluorescence−Minimum buffer fluorescence)]*100 Functional Response=[(Maximum signal fluorescence−Minimum signal fluorescence)−(Maximum control fluorescence−Minimum control fluorescence)] • Signal Fluorescence: refers to the change in fluorescence seen with addition of ligand • Control fluorescence: refers to the change in fluorescence seen with addition of buffer (negative control) • Calcium signals from ligand and control were normalized to the basal fluorescence of the cells prior to the stimulation.
(§5) A concentration analysis was performed and EC50 values were calculated by nonlinear regression using the formula: Y=Bottom+(Top-Bottom)/(1+10^((Log EC50-X)*Hill Slope)), X=log of dose or concentration, Y=Response (increasing as X increases), Top=maximum signal, Bottom=minimum signal.

[2] = molecular target: T2, TAS2R38 (Homo sapiens, UniProt P59533); test: Calcium fluorescence functional assay, TAS2R38 cell line; conditions: 20 mM tastant; cell line expressing human TAS2R38 and mouse Gα15
T2 construct: expressed in transfected cells
T2 sequence (P59533 1-333): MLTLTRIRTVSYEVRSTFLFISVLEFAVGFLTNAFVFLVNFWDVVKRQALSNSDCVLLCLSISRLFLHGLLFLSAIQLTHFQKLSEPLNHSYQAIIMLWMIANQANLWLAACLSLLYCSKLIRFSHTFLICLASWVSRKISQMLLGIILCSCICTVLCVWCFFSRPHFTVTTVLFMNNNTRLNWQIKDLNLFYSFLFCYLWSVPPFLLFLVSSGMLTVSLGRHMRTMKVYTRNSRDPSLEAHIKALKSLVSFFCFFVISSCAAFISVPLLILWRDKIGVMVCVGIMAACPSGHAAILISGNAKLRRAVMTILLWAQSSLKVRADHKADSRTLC
Experimental: as §1, §2, §3, §4, §5

[3] = molecular target: T3, TAS2R40 (Homo sapiens, UniProt P59535); test: Calcium fluorescence functional assay, TAS2R40 cell line; conditions: 20 mM tastant; cell line expressing human TAS2R40 and mouse Gα15
T3 construct: expressed in transfected cells
Experimental: as §1, §2, §3, §4, §5

[4] = molecular target: T4, TAS2R4 (Homo sapiens, UniProt Q9NYW5); test: Calcium fluorescence functional assay, TAS2R4 cell line; conditions: for TAS2R4 bitter taste receptor activity (changes in intracellular calcium): 20 mM tastant, cell line expressing human TAS2R4 and mouse Gα15
T4 construct: expressed in transfected cells
T4 sequence (Q9NYW5 1-299): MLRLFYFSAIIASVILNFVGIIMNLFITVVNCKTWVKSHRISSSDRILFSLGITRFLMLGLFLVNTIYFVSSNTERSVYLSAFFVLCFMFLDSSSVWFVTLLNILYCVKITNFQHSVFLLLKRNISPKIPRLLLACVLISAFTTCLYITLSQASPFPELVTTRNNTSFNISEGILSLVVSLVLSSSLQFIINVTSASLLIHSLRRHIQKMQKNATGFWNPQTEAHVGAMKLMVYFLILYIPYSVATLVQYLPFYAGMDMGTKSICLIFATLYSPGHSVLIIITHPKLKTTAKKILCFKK
Experimental: as §1, §2, §3, §4, §5

[5] = molecular target: T5, TAS2R43 (Homo sapiens, UniProt P59537); test: Calcium fluorescence functional assay, TAS2R43 cell line; conditions: 20 mM tastant; cell line expressing human TAS2R43 and mouse Gα15
T5 construct: expressed in transfected cells
T5 sequence (P59537 1-309): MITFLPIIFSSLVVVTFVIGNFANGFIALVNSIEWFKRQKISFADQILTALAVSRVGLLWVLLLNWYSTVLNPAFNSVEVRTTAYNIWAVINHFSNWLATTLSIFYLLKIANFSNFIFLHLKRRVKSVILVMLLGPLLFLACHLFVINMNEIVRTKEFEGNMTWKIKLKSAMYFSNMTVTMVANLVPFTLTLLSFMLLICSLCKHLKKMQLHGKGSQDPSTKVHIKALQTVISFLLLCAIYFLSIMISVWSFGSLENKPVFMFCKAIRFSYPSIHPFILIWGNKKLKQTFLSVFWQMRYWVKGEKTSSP
Experimental: as §1, §2, §3, §4, §5

[6] = molecular target: T6, TAS2R7 (Homo sapiens, UniProt Q9NYW3); test: Calcium fluorescence functional assay, TAS2R7 cell line; conditions: 20 mM tastant; cell line expressing human TAS2R7 and mouse Gα15
T6 construct: expressed in transfected cells
T6 sequence (Q9NYW3 1-318): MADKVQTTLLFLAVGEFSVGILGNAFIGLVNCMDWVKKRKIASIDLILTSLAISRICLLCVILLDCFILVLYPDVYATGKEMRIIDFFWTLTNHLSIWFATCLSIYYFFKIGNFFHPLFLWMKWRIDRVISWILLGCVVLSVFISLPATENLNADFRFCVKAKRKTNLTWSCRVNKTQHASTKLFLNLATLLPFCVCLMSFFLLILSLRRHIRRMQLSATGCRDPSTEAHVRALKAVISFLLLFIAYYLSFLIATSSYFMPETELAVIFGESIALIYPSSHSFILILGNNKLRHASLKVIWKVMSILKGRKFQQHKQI
Experimental: as §1, §2, §3, §4, §5

[7] = molecular target: T7, TAS2R3 (Homo sapiens, UniProt Q9NYW6); test: Calcium fluorescence functional assay, TAS2R3 cell line; conditions: 20 mM tastant; cell line expressing human TAS2R3 and mouse Gα15
T7 construct: expressed in transfected cells
T7 sequence (Q9NYW6 1-316): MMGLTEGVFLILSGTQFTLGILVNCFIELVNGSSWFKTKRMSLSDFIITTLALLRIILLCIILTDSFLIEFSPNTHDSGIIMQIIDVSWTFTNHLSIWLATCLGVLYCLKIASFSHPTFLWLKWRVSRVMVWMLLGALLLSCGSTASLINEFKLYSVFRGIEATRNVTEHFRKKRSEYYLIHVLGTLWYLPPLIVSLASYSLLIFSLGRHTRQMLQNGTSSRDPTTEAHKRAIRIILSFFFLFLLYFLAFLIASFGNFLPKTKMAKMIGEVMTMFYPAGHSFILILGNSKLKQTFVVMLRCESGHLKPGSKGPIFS
Experimental: as §1, §2, §3, §4, §5

T3 sequence (P59535 whole entry): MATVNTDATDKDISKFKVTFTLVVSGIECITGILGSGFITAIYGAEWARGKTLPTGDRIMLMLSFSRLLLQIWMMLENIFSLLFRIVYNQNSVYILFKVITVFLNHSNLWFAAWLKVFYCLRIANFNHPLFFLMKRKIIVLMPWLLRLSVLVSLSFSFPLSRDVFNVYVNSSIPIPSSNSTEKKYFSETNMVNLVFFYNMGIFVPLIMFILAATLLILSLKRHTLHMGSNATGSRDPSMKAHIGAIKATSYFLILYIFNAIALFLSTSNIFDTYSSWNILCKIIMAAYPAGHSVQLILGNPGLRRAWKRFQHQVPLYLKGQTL

Compound	TAS2R10 bitter taste receptor activity (changes in intracellular calcium) [1]	TAS2R38 bitter taste receptor activity (changes in intracellular calcium) [2]	TAS2R40 bitter taste receptor activity (changes in intracellular calcium) [3]	TAS2R4 bitter taste receptor activity (changes in intracellular calcium) [4]	TAS2R43 bitter taste receptor activity (changes in intracellular calcium) [5]	TAS2R7 bitter taste receptor activity (changes in intracellular calcium) [6]	TAS2R3 bitter taste receptor activity (changes in intracellular calcium) [7]	EC50 ([4]; increasing concentrations of KCl, TAS2R4 cell line (FIG. 3), read-out: EC50 value, activation of TAS2R4)
CC1=CC(=O)NS(=O)(=O)O1 [Acesulfame K]	did not induce	did not induce	did not induce	induced	did not induce	did not induce	did not induce	–
[Cl-].[K+] [KCl, potassium chloride]	did not induce	did not induce	did not induce	induced	did not induce	did not induce	did not induce	5 to 15 mM
CC(O)C(=O)[O-].[K+] (stereo not shown) [Potassium lactate, potassium lactate]	did not induce	did not induce	did not induce	induced	did not induce	did not induce	did not induce	–
